{"source": "PubChem BioAssay (NCI)", "assay_in_all_cases": "NCI anticancer screen, dose series, 384-well format", "key": {"SK-MEL-2 melanoma": {"tested_on": "SK-MEL-2 melanoma"}, "UACC-62 melanoma": {"tested_on": "UACC-62 melanoma"}, "HOP-62 NSCLC": {"tested_on": "HOP-62 NSCLC"}, "HOP-92 NSCLC": {"tested_on": "HOP-92 NSCLC"}, "SK-MEL-5 melanoma": {"tested_on": "SK-MEL-5 melanoma"}, "HCT-116 colon": {"tested_on": "HCT-116 colon"}, "MALME-3M melanoma": {"tested_on": "MALME-3M melanoma"}, "K-562 leukemia": {"tested_on": "K-562 leukemia"}, "TK-10 renal": {"tested_on": "TK-10 renal"}, "OVCAR-4 ovarian": {"tested_on": "OVCAR-4 ovarian"}, "KM12 colon": {"tested_on": "KM12 colon"}, "SR leukemia": {"tested_on": "SR leukemia"}, "SNB-19 CNS": {"tested_on": "SNB-19 CNS"}}, "note": "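At the GI50, growth is halved. The concentration for full growth arrest is given as TGI.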", "data": [{"smiles": "CNC(=O)c1ccc(-c2cnc3ncc(Cc4ccc5ncccc5c4)n3n2)cc1F", "values": [{"measurement": "GI50", "setting": "SK-MEL-2 melanoma", "value": "> 100", "unit": "µM"}, {"measurement": "TGI", "setting": "SK-MEL-2 melanoma", "value": "> 100", "unit": "µM"}, {"measurement": "GI50", "setting": "UACC-62 melanoma", "value": "> 100", "unit": "µM"}, {"measurement": "TGI", "setting": "UACC-62 melanoma", "value": "> 100", "unit": "µM"}, {"measurement": "GI50", "setting": "HOP-62 NSCLC", "value": "> 100", "unit": "µM"}, {"measurement": "TGI", "setting": "HOP-62 NSCLC", "value": "> 100", "unit": "µM"}, {"measurement": "GI50", "setting": "HOP-92 NSCLC", "value": "> 75", "unit": "µM"}, {"measurement": "TGI", "setting": "HOP-92 NSCLC", "value": "> 100", "unit": "µM"}, {"measurement": "GI50", "setting": "SK-MEL-5 melanoma", "value": "> 100", "unit": "µM"}, {"measurement": "TGI", "setting": "SK-MEL-5 melanoma", "value": "> 100", "unit": "µM"}, {"measurement": "GI50", "setting": "HCT-116 colon", "value": "> 100", "unit": "µM"}, {"measurement": "TGI", "setting": "HCT-116 colon", "value": "> 100", "unit": "µM"}, {"measurement": "GI50", "setting": "MALME-3M melanoma", "value": "> 100", "unit": "µM"}, {"measurement": "TGI", "setting": "MALME-3M melanoma", "value": "> 100", "unit": "µM"}, {"measurement": "GI50", "setting": "K-562 leukemia", "value": "> 100", "unit": "µM"}, {"measurement": "TGI", "setting": "K-562 leukemia", "value": "> 100", "unit": "µM"}, {"measurement": "GI50", "setting": "TK-10 renal", "value": "> 100", "unit": "µM"}, {"measurement": "TGI", "setting": "TK-10 renal", "value": "> 100", "unit": "µM"}, {"measurement": "GI50", "setting": "OVCAR-4 ovarian", "value": "> 100", "unit": "µM"}, {"measurement": "TGI", "setting": "OVCAR-4 ovarian", "value": "> 100", "unit": "µM"}, {"measurement": "GI50", "setting": "KM12 colon", "value": "> 77.3", "unit": "µM"}, {"measurement": "TGI", "setting": "KM12 colon", "value": "> 100", "unit": "µM"}, {"measurement": "GI50", "setting": "SR leukemia", "value": "> 50.9", "unit": "µM"}, {"measurement": "TGI", "setting": "SR leukemia", "value": "> 100", "unit": "µM"}, {"measurement": "GI50", "setting": "SNB-19 CNS", "value": "> 100", "unit": "µM"}, {"measurement": "TGI", "setting": "SNB-19 CNS", "value": "> 100", "unit": "µM"}]}]}
